According to patent US20260265299A1, “SYNTHESIS OF BICYCLE TOXIN CONJUGATES, AND INTERMEDIATES THEREOF” (priority 2023, published 2026):
Starred links: 1 amine or outer side, 2 acyl side, 3 side chain; linkers in the order of their positions; H or OH if unused. Non-standard residues stand in square brackets, D forms with d. Residues, ends and D or L forms follow the SMILES beside them. ξ: configuration not given here. *: point of attachment. Dolaproine = CO[C@@H]([C@@H]1CCCN1)[C@@H](C)C(=O)O; ξDil = CC[C@H](C)C([C@@H](CC(=O)[*:2])OC)N(C)[*:1]; PABC = O=C(OCc1ccc(N[*:1])cc1)[*:2]; Glutaryl = O=C(CCCC(=O)[*:2])[*:1]; X1 = C[C@@H](N*)[C@@H](O)c1ccccc1; Cit = NC(=O)NCCC[C@H](N)C(=O)O; NMeV = CN[C@H](C(=O)O)C(C)C

How the values were obtained:
Type in all cases: physicochemical
[1] = Solubility of gvcMMAE in different solvents (assay in mother liquor); details: for Assay in ML (w/w %): 20-30° C., 0.5 h, free acid state
Source text: 3.3.6. Study the Solubility of gvcMMAE in Different Solvents (Table 10)
Solubility of gvcMMAE (free acid state) in different solvents (THF, DCM, MTBE, n-Heptane, iPrOAc, 1,4-dioxane) were investigated.

[2] = Moisture absorption experiment at 60% RH; details: 3 days
Method: 100 mg of gvcMMAE was stood at 60% RH condition to do a moisture absorption experiment. The solid state had no change (The weight changed to 103 mg) after 3 days.

[3] = Stress test of gvcMMAE at different drying temperature (HPLC); details: for HPLC/area % gvcMMAE: dry
Method: 3.3.13. Stress Test of gvcMMAE at Different Drying Temperature (Table 22 and 23)
Stress test of gvcMMAE at different drying temperatures was done. According to the result listed below, gvcMMAE was stable at 40° C. for 3 days.

[4] = DVS test (hygroscopicity)
Method: (Uptake 3.6% water on sorption curve between 40% RH and 80% RH, at 25° C.).

CC[C@H](C)C([C@@H](CC(=O)N1CCC[C@H]1[C@H](OC)[C@@H](C)C(=O)N[C@H](C)[C@@H](O)c1ccccc1)OC)N(C)C(=O)[C@@H](NC(=O)[C@H](C(C)C)N(C)C(=O)OCc1ccc(NC(=O)[C@H](CCCNC(N)=O)NC(=O)[C@@H](NC(=O)CCCC(=O)O)C(C)C)cc1)C(C)C (stereo partly drawn) [gvcMMAE, Glutaryl-Val-Cit-PAB-MMAE] (Glutaryl-V[Cit][PABC][NMeV]V[ξDil][Dolaproine]-X1)
Assay in ML (w/w %) ([1]; 1,4-dioxane 20 v): 0.22 w/w %
Assay in ML (w/w %) ([1]; DCM 20 v): 0.00 w/w %
Assay in ML (w/w %) ([1]; MTBE 20 v): 0.00 w/w %
Assay in ML (w/w %) ([1]; N-heptane 20 v): 0.00 w/w %
Assay in ML (w/w %) ([1]; THF 20 v): 0.47 w/w %
Solubility in solvents (in words) ([1]; THF, DCM, MTBE, n-Heptane, iPrOAc, 1,4-dioxane): insoluble in most solvents
Assay in ML (w/w %) ([1]; iPrOAc 20 v): 0.00 w/w %
Solid state after moisture absorption ([2]; 100 mg): no change
Weight after moisture absorption ([2]; starting from 100 mg): 103 mg
HPLC/area % gvcMMAE ([3]; 20° C., 3 days): 98.62 area %
HPLC/area % gvcMMAE ([3]; 30° C., 3 days): 98.65 area %
Stability at drying temperature (in words) ([3]; 40° C. for 3 days): stable
HPLC/area % gvcMMAE ([3]; 40° C., 3 days): 98.61 area %
HPLC/area % gvcMMAE ([3]; 50° C., 3 days): 98.52 area %
HPLC/area % gvcMMAE ([3]; before stress test): 98.54 area %
Hygroscopicity (DVS) ([4]; 80% RH at 25° C.): hygroscopic
Water uptake on sorption curve ([4]; between 40% RH and 80% RH, at 25° C.): 3.6%
